Assay results taken from the supplement of paper PMC13380429.
± gives the standard deviation of the averaged measurements.

What was measured:
Conditions in all cases: 72 h
[1] = tested on: Caco-2; assay: cell viability relative to DMSO; higher = less toxic
[2] = tested on: Calu-3; assay: as above
[3] = tested on: HepG2; assay: as above
[4] = tested on: U2OS; assay: as above
[5] = tested on: Vero E6; assay: as above
[6] = tested on: Caco-2; assay: relative viability EC50 (midpoint between 100% and the lowest measured viability); higher = less toxic
[7] = tested on: Calu-3; assay: as above
[8] = tested on: HepG2; assay: as above
[9] = tested on: U2OS; assay: as above
[10] = tested on: Vero E6; assay: as above
[11] = tested on: Caco-2; assay: drug sensitivity score (DSS) for viability; higher = more toxic; extreme values may be limits of the assay
[12] = tested on: Calu-3; assay: as above
[13] = tested on: HepG2; assay: as above
[14] = tested on: U2OS; assay: as above
[15] = tested on: Vero E6; assay: as above

Row | Compound | cell viability ([1]; 1 nM) [%] | cell viability ([1]; 10 nM) [%] | cell viability ([1]; 100 nM) [%] | cell viability ([1]; 1000 nM) [%] | cell viability ([1]; 10000 nM) [%] | cell viability ([2]; 1 nM) [%] | cell viability ([2]; 10 nM) [%] | cell viability ([2]; 100 nM) [%] | cell viability ([2]; 1000 nM) [%] | cell viability ([2]; 10000 nM) [%] | cell viability ([3]; 1 nM) [%] | cell viability ([3]; 10 nM) [%] | cell viability ([3]; 100 nM) [%] | cell viability ([3]; 1000 nM) [%] | cell viability ([3]; 10000 nM) [%] | cell viability ([4]; 1 nM) [%] | cell viability ([4]; 10 nM) [%] | cell viability ([4]; 100 nM) [%] | cell viability ([4]; 1000 nM) [%] | cell viability ([4]; 10000 nM) [%] | cell viability ([5]; 1 nM) [%] | cell viability ([5]; 10 nM) [%] | cell viability ([5]; 100 nM) [%] | cell viability ([5]; 1000 nM) [%] | cell viability ([5]; 10000 nM) [%] | relative viability EC50 [6] [µM] | relative viability EC50 [7] [µM] | relative viability EC50 [8] [µM] | relative viability EC50 [9] [µM] | relative viability EC50 [10] [µM] | drug sensitivity score [11] | drug sensitivity score [12] | drug sensitivity score [13] | drug sensitivity score [14] | drug sensitivity score [15]
1 | Cc1c(C)c(NCC(=O)N(C)C2CCN(Cc3ccc(C(N)=O)cc3)CC2)c(C)c(C)c1N | 98.7 | 99.6 | 92.7 | 96.6 | 112 | 105 | 91 | 101 | 104 | 103 | 97.5 | 100 | 101 | 102 | 96.7 | 100 | 97 | 102 | 99.2 | 98.1 | 96.1 | 97.7 | 92.4 | 101 | 105 | > 10 | > 10 | > 10 | > 10 | > 10 | 0 | 0 | 0 | 0 | 0
2 | COc1cc(OCc2cccc(-c3ccccc3)c2C)cc(OC)c1CN1CCCC[C@H]1C(=O)O [PD1-PDL-inhibitor-1] | 104 | 94.5 | 94.4 | 96.3 | 102 | 98.2 | 99.1 | 98.1 | 102 | 102 |  |  |  |  |  | 99.3 | 98.7 | 101 | 99 | 95.8 | 99.5 | 106 | 99.3 | 105 | 103 | > 10 | > 10 |  | > 10 | > 10 | 0 | 0 |  | 0 | 0
3 | CN(C)c1ccc(/C=C2\C(=O)Nc3ccccc32)cc1 [SU4312] | 96.3 | 106 | 97.5 | 90.6 | 79.6 | 97.7 | 94.3 | 96.4 | 88.4 | 91.8 | 96 | 92.4 | 95.1 | 69.5 | 89.7 | 99.3 | 105 | 94.8 | 96.9 | 90 | 106 | 99.6 | 103 | 103 | 89.3 | > 10 | > 10 |  | > 10 | > 10 | 1.2 | 0 | 2 | 0 | 0
4 | COc1ccc(CN(CCN(C)C)c2ncccn2)cc1 [thonzylamine] | 99.7 | 104 | 93.8 | 101 | 105 | 96.2 | 103 | 96.9 | 92.5 | 101 | 93.2 | 103 | 97.6 | 102 | 98.9 | 97.2 | 101 | 96 | 98.3 | 105 | 102 | 102 | 98.1 | 104 | 95.9 | > 10 | > 10 | > 10 | > 10 | > 10 | 0 | 0 | 0 | 0 | 0
5 | CC(C)Nc1cccnc1N1CCN(C(=O)c2cc3cc(NS(C)(=O)=O)ccc3[nH]2)CC1 [delavirdine] | 99.4 | 96.4 | 101 | 101 | 94.2 | 100 | 93 | 104 | 90.5 | 105 | 98.8 | 108 | 99.2 | 115 | 107 | 101 | 101 | 102 | 98.5 | 102 | 92.2 | 99 | 87.9 | 95.3 | 105 | > 10 | > 10 | > 10 | > 10 | > 10 | 0 | 0 | 0 | 0 | 0
6 | COc1ccc(COc2ccc(CC#N)cc2)cc1 [O4I1] | 94.7 | 93.9 | 96.3 | 92.9 | 92.2 | 104 | 93.3 | 103 | 89.4 | 102 | 100 | 97 | 98.6 | 95.4 | 94.7 | 102 | 106 | 96.2 | 104 | 95.4 | 100 | 99.4 | 99.1 | 95 | 87.4 | > 10 | > 10 | > 10 | > 10 | > 10 | 0 | 0 | 0 | 0 | 0.2
7 | O=C1CS[C@@H](c2ccccc2Cl)c2cc(Cl)ccc2N1 (racemic) | 92.3 | 101 | 92.2 | 98.6 | 90.1 | 94.5 | 100 | 96.7 | 100 | 105 | 100 | 98.7 | 96.4 | 110 | 102 | 106 | 104 | 94.4 | 101 | 102 | 96.6 | 97.6 | 99.1 | 97.8 | 104 | > 10 | > 10 | > 10 | > 10 | > 10 | 0 | 0 | 0 | 0 | 0
8 | O=C(Nc1ccc(Cl)nc1)c1ccc(Cl)cc1 | 103 | 90.2 | 97.8 | 98.8 | 102 | 94.9 | 90.6 | 96.6 | 94.2 | 102 | 97.5 | 109 | 106 | 103 | 110 | 95.6 | 94.3 | 101 | 93.2 | 95.7 | 95.4 | 98.7 | 95.9 | 94.1 | 100 | > 10 | > 10 | > 10 | > 10 | > 10 | 0 | 0 | 0 | 0 | 0
9 | C[C@]12N[C@H](Cc3ccccc31)c1ccccc12 [dizocilpine-(-)] | 98.7 ± 0.42 | 94.5 ± 1.2 | 97.7 ± 1.8 | 102 ± 6.2 | 99.5 ± 5 | 97.8 ± 11 | 96.6 ± 3 | 101 ± 7.7 | 96.8 ± 6.1 | 98.5 ± 11 | 99.4 ± 0.28 | 97.7 ± 4.1 | 102 ± 9.9 | 95 ± 4.2 | 73.8 ± 28 | 98.1 ± 5.1 | 104 ± 3.2 | 97.4 ± 1.7 | 100.7 ± 0.92 | 95.4 ± 1.4 | 95.8 | 97.2 | 101 | 93 | 97 | > 10 | > 10 |  | > 10 | > 10 | 0 | 0 | 1.85 ± 2.6 | 0 | 0
10 | Cc1ccc(=O)n(-c2ccc(O)cc2)c1 [F351] | 92.1 | 92.6 | 96.7 | 100 | 93 | 90.2 | 105 | 96.9 | 85.2 | 97.4 | 105 | 93.1 | 108 | 101 | 96.9 | 99.2 | 97.3 | 97.2 | 100 | 97.4 | 98.1 | 100 | 94.4 | 99.1 | 95.4 | > 10 | > 10 | > 10 | > 10 | > 10 | 0 | 0 | 0 | 0 | 0
11 | O=C1Cc2cc(CCN3CCN(c4nsc5ccccc45)CC3)c(Cl)cc2N1 [ziprasidone] | 100 | 90.5 | 98.3 | 102 | 75.6 | 103 | 97.8 | 91.9 | 97.4 | 108 | 105 | 120 | 102 | 103 | 83.8 | 101 | 99.4 | 100 | 98.9 | 96.4 | 106 | 105 | 95.8 | 104 | 98.4 | > 10 | > 10 | > 10 | > 10 | > 10 | 0.8 | 0 | 0.2 | 0 | 0
12 | CNC(=O)c1ccc(N2C(=S)N(c3cnc(C#N)c(C(F)(F)F)c3)C(=O)C23CCC3)cc1F [apalutamide] | 104 | 107 | 94.1 | 90.6 | 93.5 | 106 | 103 | 103 | 102 | 97.1 | 99.5 | 107 | 112 | 109 | 104 | 98 | 98.6 | 96.7 | 97.7 | 96.9 | 104 | 107 | 99.3 | 105 | 98.8 | > 10 | > 10 | > 10 | > 10 | > 10 | 0 | 0 | 0 | 0 | 0
13 | C=CC(=O)Nc1ccc2ncnc(Nc3ccc(OCc4cccc(F)c4)c(Cl)c3)c2c1 [AST-1306] | 93.4 | 105 | 83.3 | 80.6 | 6.1 | 98.9 | 80.4 | 40.4 | 32.3 | 4.3 | 102 | 96.7 | 107 | 92.8 | 48.2 | 91.4 | 72.7 | 91.5 | 61.3 | 23.4 | 99.8 | 97 | 83.7 | 51.8 | 17.7 | 1.72 | 0.0782 | 2.06 | 0.665 | 0.575 | 8.3 | 22.6 | 4 | 9.8 | 11.3
14 | CO[C@H]1CC[C@H](N(c2cc(C3=CCCCC3)sc2C(=O)O)C(=O)[C@H]2CC[C@H](C)CC2)CC1 [VCH-916] | 92.2 | 93.4 | 105 | 95.5 | 105 | 90.8 | 110 | 107 | 97.5 | 104 | 103 | 92.8 | 110 | 110 | 114 | 96.2 | 98.7 | 98.6 | 98.6 | 101 | 96.9 | 95.7 | 98.8 | 103 | 110 | > 10 | > 10 | > 10 | > 10 | > 10 | 0 | 0 | 0 | 0 | 0
